≈ marks a conversion by molar mass, not a printed value. Like-named read-outs stand apart in the source and are kept apart here.
Key:
Assay type in all cases: cell-based
[1] = test system: Vancomycin-resistant Staphylococcus aureus (VRSA12); assay: MBC by plating from MIC wells; conditions: read-out: MBC VRSA12
Description: (§1) Based upon the initial results obtained, the active compounds were further screened against additional clinical isolates of methicillin-sensitive S. aureus (MSSA), methicillin-resistant S. aureus (MRSA), vancomycin-resistant S. aureus (VRSA), Staphylococcus epidermidis, vancomycin-resistant Enterococcus faecium (VRE), vancomycin-resistant Enterococcus faecalis (VRE) and Streptococcus pneumoniae, as presented in Table 2. Additionally, we examined whether the compounds were bacteriostatic (inhibit bacteria from growing) or bactericidal (kill bacteria) by determining the minimum bactericidal concentration (MBC). The MBC was determined by plating 5 μL from each well where no growth was present (in the MIC plates) onto tryptic soya agar plates and incubating plates at 37° C. for 24 hours. The MBC was categorized as the lowest concentration that generated a 99.9% reduction in bacterial colony-forming units (Table 3).

[2] = test system: Vancomycin-resistant Enterococcus faecium ATCC-700221 (VRE ATCC-700221); assay: MBC by plating from MIC wells; conditions: read-out: MBC VRE ATCC-700221
Description: as §1

[3] = test system: Cephalosporin-resistant Streptococcus pneumoniae ATCC-700677; assay: MBC by plating from MIC wells
Description: as §1

[4] = test system: Staphylococcus epidermidis (NRS-101); assay: MBC by plating from MIC wells
Description: as §1

[5] = test system: Methicillin-sensitive Staphylococcus aureus (MSSA NRS-107); assay: MBC by plating from MIC wells; conditions: read-out: MBC MSSA NRS-107
Description: as §1

[6] = test system: Cephalosporin-resistant Streptococcus pneumoniae ATCC-15916; assay: MBC by plating from MIC wells
Description: as §1

[7] = test system: Methicillin-resistant Staphylococcus aureus (MRSA NRS-119); assay: MBC by plating from MIC wells; conditions: read-out: MBC MRSA NRS119
Description: as §1

[8] = test system: Listeria monocytogenes ATCC-19111; assay: MIC of active MY compounds; conditions: ATCC19111, read-out: MIC L. monocytogenes ATCC-19111
[9] = test system: Vancomycin-resistant Staphylococcus aureus (VRSA12); assay: MIC of active MY compounds; conditions: read-out: MIC VRSA12
Description: as §1
(§2) The minimum inhibitory concentrations (MICs) of the tested compounds and control drugs; linezolid, vancomycin, gentamicin (antibiotics) and fluconazole and 5-fluorocytosine (5-FC) (antifungal drugs) were determined using the broth microdilution method, according to guidelines outlined by the Clinical and Laboratory Standards Institute (CLSI)^1, 2, 3 against clinically-relevant bacterial (methicillin-resistant Staphylococcus aureus (MRSA), Escherichia coli and Clostridium difficile strains) and fungal (Candida albicans) strain. S. aureus and E. coli were grown aerobically overnight on tryptone soy agar plates at 37° C. C. difficile was grown anaerobically on brain heart infusion supplemented agar at 37° C. for 48 hours. C. albicans was grown aerobically overnight on yeast peptone dextrose (YPD) agar plate at 35° C. Afterwards, a bacterial solution equivalent to 0.5 McFarland standard was prepared and diluted in cation-adjusted Mueller-Hinton broth (CAMHB) (for S. aureus and E. coli) to achieve a bacterial concentration of about 5×10^5 CFU/mL. C. difficile was diluted in brain heart infusion supplemented broth, supplemented with yeast extract, hemin and vitamin K to achieve a bacterial concentration of about 5×10^5 CFU/mL. C. albicans was diluted in Roswell Park Memorial Institute (RPMI 1640) medium with glutamine and without bicarbonate (GIBCO by Life Technologies, Green Island, N.Y., USA) which was buffered to pH 7.0 with 0.165 M of [3-(N-morpholino) propanesulfonic acid] (MOPS) (dot scientific inc., Burton, Mich., USA) to achieve a fungal concentration of about 1.5×10^3 CFU/mL. Compounds and control drugs were added in the first row of the 96-well plates and serially diluted with the corresponding media containing bacteria/fungi. Plates were then, incubated aerobically at 37° C. for 18-20 hours (for S. aureus and E. coli). C. difficile was incubated anaerobically at 37° C. for 48 hours. C. albicans was incubated aerobically at 37° C. for 24 hours.

[10] = test system: Vancomycin-resistant Enterococcus faecium ATCC-700221 (VRE ATCC-700221); assay: MIC of active MY compounds; conditions: read-out: MIC VRE ATCC-700221
Description: as §1, §2

[11] = test system: Cephalosporin-resistant Streptococcus pneumoniae ATCC-700677; assay: MIC of active MY compounds; conditions: ATCC700677, read-out: MIC S. pneumoniae ATCC 700677
Description: as §1, §2

[12] = test system: Methicillin-resistant Staphylococcus aureus (MRSA NRS-123, USA400); assay: MIC of active MY compounds; conditions: read-out: MIC MRSA NRS123 (USA400)
Description: as §1, §2

[13] = test system: Staphylococcus epidermidis (NRS-101); assay: MIC of active MY compounds; conditions: NRS101, read-out: MIC S. epidermidis NRS 101
Description: as §1, §2

[14] = test system: Vancomycin-resistant Enterococcus fecalis ATCC-51299 (VRE ATCC-51299); assay: MIC of active MY compounds; conditions: read-out: MIC VRE ATCC-51299
Description: as §1, §2

[15] = test system: Methicillin-sensitive Staphylococcus aureus (MSSA NRS-107); assay: MIC of active MY compounds; conditions: read-out: MIC MSSA NRS-107
Description: as §1, §2

[16] = test system: Cephalosporin-resistant Streptococcus pneumoniae ATCC-15916; assay: MIC of active MY compounds; conditions: ATCC15916, read-out: MIC S. pneumoniae ATCC-15916
Description: as §1, §2

[17] = test system: Vancomycin-resistant Staphylococcus aureus (VRSA10); assay: MIC of active MY compounds; conditions: read-out: MIC VRSA10
Description: as §1, §2

[18] = test system: Methicillin-resistant Staphylococcus aureus (MRSA NRS-119); assay: MIC of active MY compounds; conditions: read-out: MIC MRSA NRS119
Description: as §1, §2

[19] = test system: Methicillin-sensitive Staphylococcus aureus ATCC-6538 (MSSA ATCC-6538); assay: MIC of active MY compounds; conditions: read-out: MIC MSSA ATCC-6538
Description: as §1, §2

[20] = ATCC700677, 99.9% reduction in CFU, read-out: MBC S. pneumoniae ATCC 700677
[21] = NRS101, 99.9% reduction in CFU, read-out: MBC S. epidermidis NRS 101
[22] = ATCC15916, 99.9% reduction in CFU, read-out: MBC S. pneumoniae ATCC-15916

SMILES | MIC [8] [µg/mL] | MIC [9] [µg/mL] | MIC [10] [µg/mL] | MIC [11] [µg/mL] | MIC [12] [µg/mL] | MIC [13] [µg/mL] | MIC [14] [µg/mL] | MIC [15] [µg/mL] | MIC [16] [µg/mL] | MIC [17] [µg/mL] | MIC [18] [µg/mL] | MIC [19] [µg/mL] | MBC ([1]; 99.9% reduction in CFU) [µg/mL] | MBC ([2]; 99.9% reduction in CFU) [µg/mL] | MBC [3, 20] [µg/mL] | MBC [4, 21] [µg/mL] | MBC ([5]; 99.9% reduction in CFU) [µg/mL] | MBC [6, 22] [µg/mL] | MBC ([7]; 99.9% reduction in CFU) [µg/mL] | further results
CN[C@H](CC(C)C)C(=O)N[C@H]1C(=O)N[C@@H](CC(N)=O)C(=O)N[C@H]2C(=O)N[C@H]3C(=O)N[C@H](C(=O)N[C@H](C(=O)O)c4cc(O)cc(O)c4-c4cc3ccc4O)[C@H](O)c3ccc(c(Cl)c3)Oc3cc2cc(c3O[C@@H]2O[C@H](CO)[C@@H](O)[C@H](O)[C@H]2O[C@H]2C[C@](C)(N)[C@H](O)[C@H](C)O2)Oc2ccc(cc2Cl)[C@H]1O [Vancomycin, reference compound] | 1 | 64 | > 64 | 1 | 1 | 2 | 32 | 2 | 1 | 64 | 1 | 1 | – | – | – | – | – | – | – | MBC [1]: > 64 µg/mL; MBC [2]: > 64 µg/mL; MBC ([3]; ATCC700677, read-out: MBC S. pneumoniae ATCC 700677): 2 µg/mL (≈ 1.38 µM); MBC ([4]; NRS101, read-out: MBC S. epidermidis NRS 101): 2 µg/mL (≈ 1.38 µM); MBC [5]: 2 µg/mL (≈ 1.38 µM); MBC ([6]; ATCC15916, read-out: MBC S. pneumoniae ATCC-15916): 1 µg/mL (≈ 0.69 µM); MBC [7]: 1 µg/mL (≈ 0.69 µM)
CNC(=O)c1cc(Oc2ccc(NC(=O)Nc3ccc(Cl)c(C(F)(F)F)c3)cc2)ccn1 [Sorafenib, reference compound] | 4 | 2 | > 64 | 4 | 4 | 8 | > 64 | 8 | 4 | 4 | 2 | 4 | > 64 | > 64 | > 64 | > 64 | > 64 | > 64 | > 64 | –
O=C(Nc1ccc(-c2ccc(=O)[nH]n2)cc1)Nc1ccc(Cl)c(Cl)c1 [MY21, 1-(3,4-dichlorophenyl)-3-(4-(6-oxo-1,6-dihydropyridazin-3-yl)phenyl)urea] | 0.5 | 1 | 2 | 2 | 1 | 1 | 4 | 1 | 2 | 1 | 1 | 1 | 8 (≈ 21.3 µM) | 4 (≈ 10.7 µM) | 4 (≈ 10.7 µM) | 4 (≈ 10.7 µM) | 4 (≈ 10.7 µM) | 4 (≈ 10.7 µM) | 1 (≈ 2.67 µM) | –
CC(=O)NC[C@H]1CN(c2ccc(N3CCOCC3)c(F)c2)C(=O)O1 [Linezolid, reference compound] | 0.5 | 1 | 1 | 1 | 1 | 0.5 | 1 | 1 | 1 | 1 | 64 | 0.5 | 16 (≈ 47.4 µM) | 16 (≈ 47.4 µM) | 16 (≈ 47.4 µM) | 8 (≈ 23.7 µM) | 16 (≈ 47.4 µM) | 32 (≈ 94.9 µM) | > 64 | –
O=C(Nc1ccc(Oc2ccc(=O)[nH]n2)cc1)Nc1ccc(Cl)c(C(F)(F)F)c1 [MY31, 1-(4-chloro-3-(trifluoromethyl)phenyl)-3-(4-((6-oxo-1,6-dihydropyridazin-3-yl)oxy)phenyl)urea] | 0.5 | 1 | 1 | 0.5 | 0.5 | 0.5 | 2 | 0.5 | 0.5 | 0.5 | 0.5 | 0.5 | > 64 | 4 (≈ 9.42 µM) | 2 (≈ 4.71 µM) | 1 (≈ 2.35 µM) | 2 (≈ 4.71 µM) | 4 (≈ 9.42 µM) | 2 (≈ 4.71 µM) | –
O=C(Nc1ccc(Oc2ccc(=O)[nH]n2)cc1)Nc1ccc(Cl)c(Cl)c1 [MY24, 1-(3,4-dichlorophenyl)-3-(4-((6-oxo-1,6-dihydropyridazin-3-yl)oxy)phenyl)urea] | 1 | 2 | 4 | 2 | 1 | 1 | 4 | 1 | 2 | 1 | 1 | 1 | > 64 | 16 (≈ 40.9 µM) | > 64 | 8 (≈ 20.4 µM) | 16 (≈ 40.9 µM) | 64 (≈ 164 µM) | 32 (≈ 81.8 µM) | –

From patent US11648248B1 (King Abdulaziz University, priority 2022, dated 2023)
